# In the NIST ThermoML archive (doi:10.1016/j.tca.2019.178375):
# Numbers after ± are expanded uncertainties.
# Tests used:
# [1] = Molar enthalpy of transition or fusion; settings: Crystal; DSC
# [2] = Crystal; DTA
smiles,measurement,setting,value
Cl.c1ccc([C@H]2CN3CCSC3=N2)cc1 [(-)-Levamisole hydrochloride],Molar enthalpy of transition or fusion,[1],7.63 ± 0.478 kcal/mol
same,Normal melting temperature,[2],227.00 ± 4 °C
